US9145411B2, “Substituted amino-pyrimidine derivatives” (Asana Biosciences, LLC, priority 2012, dated 2015)

Assays:
PI3Kα mutation H1047R = PI3Kα mutation H1047R (Homo sapiens, UniProt P42336, H1047R); experiment: PI3 Kinase TR-FRET assay, PI3Kα mutation H1047R; assay type: biochemical; settings: read-out: inhibition of PI3Kα mutation H1047R, IC50
Procedure: (§1) The ability of compounds of the invention to inhibit PI3K activity was determined in a homogeneous TR-FRET assay using a PI3K assay kit (Millipore, USA; cat #33-016) according to manufacturer's instructions. PI3-Kinases (isoforms α, β, γ and δ) catalyze the phosphorylation of phosphatidylinositol, PIP2 to PIP3 in the presence of ATP and Mg^2+. The PIP3 product is detected by displacement of biotin-PIP3 from an energy transfer complex consisting of Europium labeled anti-GST monoclonal antibody, a GST-tagged PH domain, biotinylated PIP3 and Streptavidin-APC. Excitation of Europium in the complex results in an energy transfer to the APC and a fluorescence emission at 665 nm. The PIP3 product displaces biotin-PIP3 from the complex resulting in a loss of energy transfer and thus a decrease in signal.
(§2) To test for the ability of compounds to inhibit the activity of PI3Kα (wild-type), exemplary compounds of formula (I) were dissolved in DMSO and directly distributed into 384-well plates at a volume of 0.5 μL. 14.5 μL of P110/P85α/PIP2 mixture in buffer (obtained from the Millipore kit) containing MgCl2 (40 mM) and DTT (5 mM) was added to compound wells and incubated for 60 minutes at room temperature. P110/P85α was expressed in SF9 insect cells and purified nickel column extraction. Five ng of wild-type P110/P85α was used in the assay. The kinase reaction was started by the addition of ATP. The assay concentrations of both PIP2 and ATP were 10 μM. The reaction mixture was incubated for 30 minutes at room temperature and was terminated by the addition of stop mix and detection mix. Fluorescence was measured at 615 and 665 nm upon excitation at 340 nm in a Victor™ V5 fluorometer (Perkin Elmer, USA). The fluorescence emission ratio at 665 to 615 nm, proportional to the kinase activity, was plotted against the compound concentration to generate dose-response curves and IC50 values were determined using GraphPad Prism® 5 software.
(§3) The activity of PI3Kα mutations H1047R and E545K were assayed in a similar manner to the assay protocol described above for PI3Kα (wild type). The compounds of formula (I) caused inhibition of PI3Kα mutations H1047R (a mutation associated with breast and gastric cancers) and E545K (a mutation associated with colorectal tumors, glioblastomas, gastric cancers, breast cancers, and lung cancers). For example, each of the compounds of Example 3, 7, 21, 47, 48 and 49 caused inhibition of each of the PI3Kα mutations H1047R and E545K with IC50 values<50 nM.

PI3Kα mutation E545K = PI3Kα mutation E545K (Homo sapiens, UniProt P42336, E545K); experiment: PI3 Kinase TR-FRET assay, PI3Kα mutation E545K; assay type: biochemical; settings: read-out: inhibition of PI3Kα mutation E545K, IC50
Procedure: as §1, §2, §3

PI3 kinase isoform δ = PI3 kinase isoform δ (Homo sapiens, UniProt O00329); experiment: PI3 Kinase TR-FRET assay, isoform δ; assay type: biochemical; settings: read-out: inhibition of PI3 kinase isoform δ, IC50
Procedure: as §1, §2
The activity of PI3 kinase isoforms β, γ and δ were assayed in a similar manner to the assay protocol described above for PI3Kα, by substituting the appropriate p110/p85 isoform for the p110α/p85α. Compounds of formula (I) caused inhibition of PI3 kinase isoforms β, γ and δ as determined by these assays. For example, the compounds of Examples 3 and 21 each caused inhibition of PI3 kinase isoform β with IC50 values<500 nM. The compounds of Examples 3, 7, 21, 47, 48 and 49 each caused inhibition of PI3 kinase isoform γ with IC50 values<500 nM. The compounds of Example 3, 7, 47, 48, and 49 caused inhibition of PI3 kinase isoform δ with IC50 values<1 μM.

U87MG cells = experiment: XTT assay for cell viability, U87MG cells; assay type: cell-based; settings: Homo sapiens, U-87 MG, read-out: inhibition of U87MG cell proliferation, IC50
Procedure: (§4) Using a commercial kit from Sigma Aldrich (Catalog #X34251) and following its protocol, PC3 cells in the log phase of growth were employed and seeded at an optimal density of 1000 cell/well on to 96 well plates and incubated for 24 hours followed by the addition of compounds of formula (I) in serial dilutions. Compound dilutions were made in DMSO. The cells were incubated with the compounds of formula (I) for 96 hours and XTT tetrazolium dye (Sigma, USA) was subsequently added and incubated at 37° C. After the color formation, absorbance was measured at 465 nm in a Spectramax® Gemini spectrophotometer. EC50 values were calculated using a sigmoidal dose response curve fit in GraphPad Prism® v5 software. The tested compounds of formula (I) which caused inhibition of PC3 cell proliferation as determined by this assay protocol are shown in Table 2.
(§5) XTT assays for cell viability were also determined in U87MG, BT474 cells and T47D cells, in a similar manner to the protocol described above. The compounds cause inhibition of U87MG, BT474 and T47D cell proliferation as determined by these assays. For example, the compounds of Examples 3 and 7 caused inhibition of U87MG, BT474 and T47D cell proliferation with IC50 values<600 nM.

BT474 cells = experiment: XTT assay for cell viability, BT474 cells; assay type: cell-based; settings: Homo sapiens, BT-474, read-out: inhibition of BT474 cell proliferation, IC50
Procedure: as §4, §5

PI3Kα mutation H1047R, sequence (P42336 whole entry H1047R, the tested form may be a part, canonical isoform): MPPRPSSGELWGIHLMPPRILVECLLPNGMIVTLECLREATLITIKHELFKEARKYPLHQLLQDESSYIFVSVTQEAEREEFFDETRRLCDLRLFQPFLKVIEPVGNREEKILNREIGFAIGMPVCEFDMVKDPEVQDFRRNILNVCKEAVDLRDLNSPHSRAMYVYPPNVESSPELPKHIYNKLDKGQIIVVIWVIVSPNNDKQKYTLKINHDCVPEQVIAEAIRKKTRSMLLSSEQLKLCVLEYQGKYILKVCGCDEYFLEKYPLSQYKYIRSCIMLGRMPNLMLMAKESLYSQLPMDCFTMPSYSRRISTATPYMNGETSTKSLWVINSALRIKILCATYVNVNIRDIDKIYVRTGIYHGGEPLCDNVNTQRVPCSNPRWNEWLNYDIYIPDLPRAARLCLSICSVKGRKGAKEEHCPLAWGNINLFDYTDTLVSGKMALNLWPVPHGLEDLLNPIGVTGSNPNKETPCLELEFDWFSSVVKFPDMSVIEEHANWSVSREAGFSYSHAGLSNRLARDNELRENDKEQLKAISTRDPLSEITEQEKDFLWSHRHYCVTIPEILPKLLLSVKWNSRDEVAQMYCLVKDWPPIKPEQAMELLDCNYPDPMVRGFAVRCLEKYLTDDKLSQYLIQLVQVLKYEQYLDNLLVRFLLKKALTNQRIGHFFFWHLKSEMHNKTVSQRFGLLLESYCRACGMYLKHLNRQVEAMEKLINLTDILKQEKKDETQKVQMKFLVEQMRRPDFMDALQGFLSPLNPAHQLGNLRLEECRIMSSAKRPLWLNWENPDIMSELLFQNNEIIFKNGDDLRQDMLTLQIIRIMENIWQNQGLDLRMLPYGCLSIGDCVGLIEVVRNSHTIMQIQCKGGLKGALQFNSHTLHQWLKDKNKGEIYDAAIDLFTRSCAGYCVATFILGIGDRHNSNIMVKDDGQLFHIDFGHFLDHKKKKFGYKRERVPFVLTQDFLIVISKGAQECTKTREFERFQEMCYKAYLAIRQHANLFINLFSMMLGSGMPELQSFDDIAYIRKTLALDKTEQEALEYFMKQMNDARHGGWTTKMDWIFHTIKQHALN
PI3Kα mutation H1047R, sequence (P27986 whole entry partner, the tested form may be a part, canonical isoform): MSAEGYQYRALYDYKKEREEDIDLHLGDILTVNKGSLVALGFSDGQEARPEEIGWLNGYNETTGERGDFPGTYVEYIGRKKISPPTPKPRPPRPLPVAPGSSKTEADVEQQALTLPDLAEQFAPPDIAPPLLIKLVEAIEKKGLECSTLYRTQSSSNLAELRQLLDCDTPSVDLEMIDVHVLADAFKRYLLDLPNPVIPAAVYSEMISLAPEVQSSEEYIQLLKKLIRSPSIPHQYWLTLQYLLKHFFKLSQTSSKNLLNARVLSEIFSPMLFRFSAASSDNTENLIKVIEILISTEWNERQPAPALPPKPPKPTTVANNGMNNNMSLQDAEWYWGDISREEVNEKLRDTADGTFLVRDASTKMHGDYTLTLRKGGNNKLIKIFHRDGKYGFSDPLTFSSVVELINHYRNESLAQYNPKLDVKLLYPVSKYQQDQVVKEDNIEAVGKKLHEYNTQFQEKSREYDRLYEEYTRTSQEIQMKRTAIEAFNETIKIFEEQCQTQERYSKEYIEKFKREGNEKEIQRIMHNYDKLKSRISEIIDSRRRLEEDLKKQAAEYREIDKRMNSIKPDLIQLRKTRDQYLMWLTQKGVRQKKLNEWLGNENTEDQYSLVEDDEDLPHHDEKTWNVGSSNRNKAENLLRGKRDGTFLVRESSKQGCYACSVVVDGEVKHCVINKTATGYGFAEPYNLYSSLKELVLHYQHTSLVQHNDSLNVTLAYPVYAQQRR
PI3Kα mutation E545K, sequence (P42336 whole entry E545K): as the sequence (P42336 whole entry H1047R, the tested form may be a part, canonical isoform) above, with E545K, R1047H counted along it
PI3Kα mutation E545K, sequence (P27986 whole entry partner): as the sequence (P27986 whole entry partner, the tested form may be a part, canonical isoform) above
PI3 kinase isoform δ, sequence (O00329 whole entry, canonical isoform): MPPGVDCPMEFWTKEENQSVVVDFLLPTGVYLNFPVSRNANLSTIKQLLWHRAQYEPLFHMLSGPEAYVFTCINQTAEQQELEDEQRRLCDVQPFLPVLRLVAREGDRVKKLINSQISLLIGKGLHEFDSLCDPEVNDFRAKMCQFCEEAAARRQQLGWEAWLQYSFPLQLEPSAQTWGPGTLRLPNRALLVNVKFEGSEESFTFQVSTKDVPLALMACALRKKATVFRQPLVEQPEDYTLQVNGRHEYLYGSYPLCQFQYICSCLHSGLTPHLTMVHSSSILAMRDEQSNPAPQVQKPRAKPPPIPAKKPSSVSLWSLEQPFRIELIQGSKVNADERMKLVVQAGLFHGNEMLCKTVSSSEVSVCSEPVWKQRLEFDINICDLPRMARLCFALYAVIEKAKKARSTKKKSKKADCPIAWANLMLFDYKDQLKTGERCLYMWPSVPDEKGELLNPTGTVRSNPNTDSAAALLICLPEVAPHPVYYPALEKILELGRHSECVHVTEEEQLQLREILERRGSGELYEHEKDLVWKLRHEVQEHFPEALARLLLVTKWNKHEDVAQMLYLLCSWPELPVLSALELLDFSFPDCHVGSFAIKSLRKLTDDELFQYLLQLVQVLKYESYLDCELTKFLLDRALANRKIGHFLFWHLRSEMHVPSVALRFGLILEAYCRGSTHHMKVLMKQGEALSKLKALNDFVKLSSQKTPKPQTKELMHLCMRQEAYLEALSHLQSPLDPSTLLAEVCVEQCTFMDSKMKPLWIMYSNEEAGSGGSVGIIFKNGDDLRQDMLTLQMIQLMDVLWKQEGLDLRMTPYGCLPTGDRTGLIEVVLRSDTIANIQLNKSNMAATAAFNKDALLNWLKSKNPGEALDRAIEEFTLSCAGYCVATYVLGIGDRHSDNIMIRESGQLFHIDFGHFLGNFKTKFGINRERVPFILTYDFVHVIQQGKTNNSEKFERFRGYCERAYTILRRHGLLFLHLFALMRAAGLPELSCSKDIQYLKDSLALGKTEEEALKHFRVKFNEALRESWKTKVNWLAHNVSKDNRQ
PI3 kinase isoform δ, sequence (P27986 whole entry partner, canonical isoform): as the sequence (P27986 whole entry partner, the tested form may be a part, canonical isoform) above

SMILES	IC50 (PI3Kα mutation H1047R)	IC50 (PI3Kα mutation E545K)	IC50 (PI3 kinase isoform δ)	IC50 (U87MG cells)	IC50 (BT474 cells)
Nc1ncc(-c2nc(N3CCOCC3)c3ncc(-c4cccc(NC(=O)C5CC5)c4)cc3n2)cn1 [Example 7, N-(3-(2-(2-Aminopyrimidin-5-yl)-4-morpholinopyrido[3,2-d]pyrimidin-7-yl)-phenyl)cyclopropanecarboxamide]	< 50 nM	< 50 nM	< 1000 nM	< 600 nM	< 600 nM
CC(=O)Nc1cccc(-c2cnc3c(N4CCOCC4)nc(-c4cnc(N)nc4)nc3c2)c1 [Example 3, N-(3-(2-(2-Aminopyrimidin-5-yl)-4-morpholinopyrido[3,2-d]pyrimidin-7-yl)-phenyl)acetamide]	< 50 nM	< 50 nM	< 1000 nM	< 600 nM	< 600 nM
